Experimental findings from US4778792A, “Use of 7-acyl benzoxazinones and their derivatives in treating atheromatous disorders” (Laboratories Negma, priority 1985, dated 1988) are described below.

The nature of this series: Normolipemic activity, lipid balance in normal or hypercholesterolemic mice. It counts as in vivo. The settings on record: per os, 50 mg/kg daily for 15 days, with respect to a control group; for change in vivo at 50 mg/kg: Mus musculus, po, 360 h. As to the method:
Activity of selected molecules by the Triton test in mice rendered hypercholesterolemic and normal mice: study of the lipid parameters, of the lipoprotein and apoprotein composition.
Preliminary study on the weight of the liver and histological examination of the hepatic tissue.
3.2 The normolipemic activity has also been established in OF normal mice or rendered hypercholesterolemic. The products tested were administered per os daily for 15 days at the dose of 50 mg/kg.
All the compounds were administered orally at the rate of 50 mg/kg.

Where [1] appears, read: read-out: CT (Total cholesterol) %.
Setting [2] is: read-out: HDLC (Cholesterol fraction contained in the HDLs) %.
The mark [3] stands for this setting: read-out: HDLC/TC (ratio between the cholesterol contained in the HDLs and the total cholesterol) %.

Counter-ions that a name gives are not always drawn. Like-named read-outs stand apart in the source and are kept apart here.

For the molecule `CN1C(=O)C(C)(C)Oc2cc(C(=O)c3ccc(Cl)cc3)ccc21` [MZ 125, 7-(4-Chlorobenzoyl)2,2,4-trimethyl benzoxazinone], the “Liver weight / Body weight” value is reported as “+17%”. In addition, the change in vivo at 50 mg/kg under setting [1] was -25%. Also, the change in vivo at 50 mg/kg under setting [2] came out at 1%. Further, the change in vivo at 50 mg/kg under setting [3] stood at 18%. For the same molecule, for the setting “read-out: Phospho Lipids”, the change in vivo at 50 mg/kg worked out at 15%. Besides, the change in vivo at 50 mg/kg (read-out: TG (Triglycerids) %) came out at 19%.
Turning to `CC(C)OC(=O)C(C)(C)Oc1ccc(C(=O)c2ccc(Cl)cc2)cc1` [Fenofibrate, fenofibrate, reference compound], the “Liver weight / Body weight” value was “+55%”. The change in vivo at 50 mg/kg under setting [1] is -30%. In addition, the change in vivo at 50 mg/kg under setting [2] was -11%. In addition, the change in vivo at 50 mg/kg under setting [3] amounted to 30%. Also, the change in vivo at 50 mg/kg (read-out: Phospho Lipids) came out at 18%. The change in vivo at 50 mg/kg (read-out: TG (Triglycerids) %) turned out to be 24%.
As for `CN1C(=O)C(C)(C)Oc2cc(C(=O)c3ccccc3)ccc21` [MZ 119, 7-Benzoyl 2,2,4 trimethyl benzoxazinone], the “Liver weight / Body weight” value was “+12%”. Further, under setting [1], the change in vivo at 50 mg/kg was -30%. For the same molecule, the change in vivo at 50 mg/kg under setting [2] is -6%. Moreover, the change in vivo at 50 mg/kg under setting [3] turned out to be 21%. In addition, the change in vivo at 50 mg/kg (read-out: Phospho Lipids) is 15%. Besides, where the note is “read-out: TG (Triglycerids) %”, the change in vivo at 50 mg/kg came out at 21%.
For the molecule `CC1Oc2cc(C(=O)C=Cc3ccc(Cl)cc3)ccc2N(C)C1=O` (centres unmarked) [MZ 134, 7(4-Chlorocinnamoyl)2,4 dimethyl benzoxazinone], the “Liver weight / Body weight” value is “+5%”. Moreover, under setting [2], the change in vivo at 50 mg/kg was 5%. Further, the change in vivo at 50 mg/kg under setting [3] amounted to 10%. In addition, the change in vivo at 50 mg/kg (read-out: Phospho Lipids) is 11%. Further, the change in vivo at 50 mg/kg (read-out: TG (Triglycerids) %) was -9%.
Take `CC1Oc2cc(C(=O)c3ccccc3)ccc2NC1=O` (centres unmarked) [MZ 115, 7-Benzoyl 2-methyl benzoxazinone]: the “Liver weight / Body weight” value is reported as “+9%”. The change in vivo at 50 mg/kg under setting [1] was -32%. Moreover, under setting [2], the change in vivo at 50 mg/kg is -5%. For the same molecule, the change in vivo at 50 mg/kg under setting [3] turned out to be 17%. Besides, under “read-out: Phospho Lipids”, the change in vivo at 50 mg/kg was -9%. For the setting “read-out: TG (Triglycerids) %”, the change in vivo at 50 mg/kg worked out at 18%.
`CN1C(=O)C(C)(C)Oc2cc(C(=O)CCCN3CCN(c4ccc(F)cc4)CC3)ccc21` [MZ 153, 7[4(4p-fluorophenylpiperazino)butyryl]2,2,4-trimethyl benzoxazinone]: the “Liver weight / Body weight” value is “+4%”. Also, the change in vivo at 50 mg/kg under setting [1] was -10%. For the same molecule, under setting [2], the change in vivo at 50 mg/kg is 25%. Further, under setting [3], the change in vivo at 50 mg/kg amounted to 45%. The change in vivo at 50 mg/kg (read-out: Phospho Lipids) is 19%. Further, the change in vivo at 50 mg/kg (read-out: TG (Triglycerids) %) came out at 18%.
Take `CN1C(=O)C(C)(C)Oc2cc(C(=O)CCN3CCN(c4cccc(C(F)(F)F)c4)CC3)ccc21` [NM 8, 3(4-Metatrifluoromethylphenylpiperazino)7-propionyl 2,2,4 trimethyl benzoxazinone, hydrochloride]: the “Liver weight / Body weight” value was -15%. Under setting [1], the change in vivo at 50 mg/kg is 8%. Further, the change in vivo at 50 mg/kg under setting [2] stood at 10%. The change in vivo at 50 mg/kg under setting [3] was 11%. Moreover, the change in vivo at 50 mg/kg (read-out: Phospho Lipids) turned out to be 8%. In addition, the change in vivo at 50 mg/kg (read-out: TG (Triglycerids) %) was found to be 23%.
On to `CCCC(=O)c1ccc2c(c1)OC(C)(C)C(=O)N2` [MZ 95, 7-Butyryl 2,2-dimethyl benzoxazinone], for which the “Liver weight / Body weight” value is reported as “+6%”. Also, under setting [1], the change in vivo at 50 mg/kg is -21%. The change in vivo at 50 mg/kg under setting [2] was found to be 0%. The change in vivo at 50 mg/kg under setting [3] amounted to 25%. Under “read-out: Phospho Lipids”, the change in vivo at 50 mg/kg is 5%. Moreover, the change in vivo at 50 mg/kg (read-out: TG (Triglycerids) %) was -5%.
`CCCC(=O)c1ccc2c(c1)OC(C)(C)C(=O)N2CCC(=O)O` [NM 11, 7-Butyryl 4-β carboxyethyl 2,2-dimethyl benzoxazinone]: the “Liver weight / Body weight” value was 0%. For the same molecule, the change in vivo at 50 mg/kg under setting [1] was -37%. Moreover, under setting [2], the change in vivo at 50 mg/kg came out at 7%. Also, the change in vivo at 50 mg/kg under setting [3] was 43%. Under “read-out: Phospho Lipids”, the change in vivo at 50 mg/kg came out at 16%. The change in vivo at 50 mg/kg (read-out: TG (Triglycerids) %) is -8%.
As for `CCCC(=O)c1ccc2c(c1)OC(C)(C)C(=O)N2C` [MZ 86, 7-Butyryl 2,2,4-trimethyl benzoxazinone], the “Liver weight / Body weight” value is “+2%”. In addition, the change in vivo at 50 mg/kg under setting [1] was -38%. For the same molecule, under setting [2], the change in vivo at 50 mg/kg was 18%. Also, the change in vivo at 50 mg/kg under setting [3] is 44%. The change in vivo at 50 mg/kg (read-out: Phospho Lipids) amounted to 0%. In addition, the change in vivo at 50 mg/kg (read-out: TG (Triglycerids) %) is -12%.
For `CN1C(=O)C(C)(C)Oc2cc(C(=O)CCN3CCOCC3)ccc21` [NM 7, 7[3-morpholinopropionyl[2'2'4 trimethylbenzoxazinone, hydrochloride], the “Liver weight / Body weight” value is recorded as -10%. Under setting [1], the change in vivo at 50 mg/kg came to 2%. The change in vivo at 50 mg/kg under setting [2] was 5%. Also, the change in vivo at 50 mg/kg under setting [3] is 14%. For the same molecule, where the note is “read-out: Phospho Lipids”, the change in vivo at 50 mg/kg is 5%. Moreover, under “read-out: TG (Triglycerids) %”, the change in vivo at 50 mg/kg came out at 5%.
